Experiments:
EGFR-viii = molecular target: T1, EGFR-viii (Homo sapiens, UniProt P00533, DELINS30-297G); assay: PhosphoY1173-EGFR-viii in-cell ELISA in U87MG tumor cells engineered to express EGFR-viii; format: cell-based; conditions: U87MG tumor cells expressing EGFR-viii; for activity against EGFR-viii: in words
T1 construct: expressed in transfected cells; host or cells: U87MG (ATCC), lentiviral infection, puromycin selection
Method: Data are expressed as EC50 and were determined using an in-cell ELISA kit (Pierce).

[1] = tested on: tumors expressing EGFR-viii; conditions: clinical studies (Vivanco 2012, Reardon 2014); cited from earlier work

Row | Structure (SMILES) | activity against EGFR-viii (EGFR-viii; in-cell ELISA) | other results
1 | C=CC(=O)Nc1cccc(Oc2nc(Nc3ccc(N4CCN(C)CC4)cc3)ncc2Cl)c1 [WZ3146] | weak activity | –
2 | C=CC(=O)Nc1ccc2ncnc(Nc3ccc(OCc4cccc(F)c4)c(Cl)c3)c2c1 [AST-1306] | – | potency against EGFR-viii relative to WZ4002, WZ8040, WZ3146, CO-1686 and AZD9291 (EGFR-viii): at least ten-fold more potent; EC50 (EGFR-viii; in-cell ELISA, read-out: EC50 against EGFR-viii (phosphoY1173-EGFRviii)): < 50 nM
3 | CS(=O)(=O)CCNCc1ccc(-c2ccc3ncnc(Nc4ccc(OCc5cccc(F)c5)c(Cl)c4)c3c2)o1 [Lapatinib, lapatinib] | – | cancer growth inhibition in clinical studies [1]: insignificant cancer growth inhibition

Continued, in another order:

Row | activity against EGFR-viii (EGFR-viii; in-cell ELISA) | Structure (SMILES) | other results
4 | weak activity | C=CC(=O)Nc1cccc(Sc2nc(Nc3ccc(N4CCN(C)CC4)cc3)ncc2Cl)c1 [WZ8040] | –
5 | weak activity | C=CC(=O)Nc1cccc(Nc2nc(Nc3ccc(N4CCN(C(C)=O)CC4)cc3OC)ncc2C(F)(F)F)c1 [CO-1686] | –
